Data from patent publication US12708655B2, “Botanicals as WNT/beta-catenin activators, molecular pathway regulators, tissue regenerators and health biomarker regulators” (Arbor Life Holdings, Ltd., priority 2020, dated 2026).
Values joined by “and” are separate entries in the source; they are usually repeats but may differ in a detail not shown here. Identical values can stand only once.

Columns and labels:
[1] = test system: androgenetic alopecia and telogen effluvium in Men; experiment: Comparative analysis of clinical trial results in men versus standard of care, adjusted to 24 weeks; assay type: in vivo, human
[2] = test system: androgentic alopecia and telogen effluvium in Women; experiment: Comparative analysis of clinical trial results in women versus standard of care, adjusted to 24 weeks; assay type: in vivo, human
[3] = test system: procaspase-8, caspase-3, procaspase-9, Bax, p53, Bcl-2, Bcl-XL; conditions: mouse model of hair loss; cited from earlier work
male pattern baldness = conditions: human, in vivo; cited from earlier work
[4] = test system: human dermal papilla stem cells (HDPSCs); experiment: MTT assay of HDPSC growth/proliferation in culture; assay type: cell-based; conditions: for MTT signal (absorbance at 570 nm), mean relative to Control 1.00: n = 6; for Change vs Control (stem cells, MTT): Table 5e; for Change in Stem Cells (MTT signal, mean relative to Control 1.00): n = 29-30
Experimental: Passage 3 human dermal papilla stem cells (HDPSCs) from a person were purchased from Sigma-Aldrich (Burlington, ON, Canada) and all work was performed under Brock University Research Ethics Board approval (File 15-138). The cells were grown on collagen-coated plates in a 50:50 mixture of Dulbecco's modified Eagles medium (DMEM):Ham's F12 media (Sigma) supplemented with 10% fetal bovine serum (FBS), 1% Gluta-Max™, 0.1% penicillin/streptomycin, 20 ng/mL human fibroblast growth factor, and 10 ng/mL human epidermal growth factor (complete medium). Cell cultures were maintained in incubators set to 5% CO2, 37° C. and 100% humidity. Experiments were performed under conditions of unregulated O2 (18-19%), except where indicated. Cells initially underwent 5-7 passages and were then stored frozen in vials of one million cells each in the above medium supplemented with 10% dimethylsulfoxide (DMSO) and stored in liquid nitrogen. For each experiment, a single vial was thawed, grown overnight, and used to seed 96-well plates.
Botanical extracts and Biotin were screened for their ability to stimulate HDPSC growth in culture using a 96-well plate format with MTT assay as an endpoint. Cells were treated for 72 h with various concentrations and combinations (as indicated, range; 1×10^−1-1×10^−5) of extracts (Table 5a). All the ingredients were able to stimulate growth or cell proliferation above control to varying rates and by varied concentrations.
Cell proliferation was assessed by MTT [3-(4,5-dimethylthiazol-2-yl)-2,5-diphenyltetrazolium bromide] assay according to the manufacturer's recommendations. HDPSCs were seeded onto collagen-coated 96-well plates at~2000 cells/well and grown in complete medium overnight. The next day, indicated concentrations of botanical extracts were added to individual wells.
For all constituents, lyophilized extracts (botanicals) or oil (Biotin) were initially dissolved in PBS at the following concentrations: Biotin 0.25 mg/mL; grapeseesd 7.5 mg/mL; skullcap 1.7 mg/mL; eclipta 3.0 mg/mL. These solutions were sterilized by passing through a 0.45 μm syringe filter. The following dilutions of these solutions, referred to as “Stock Solutions”, were then used for experimental treatments in cell culture media: Biotin (1:100); grapeseed (1:1000); skullcap (1:1000); eclipta (1:100). DMEM media and extracts were refreshed each day. The following day, the MT assay was performed to evaluate cell growth. For this, all media/extract was removed from wells and replaced with phenol-red free DMEM. The cells were incubated for 2 h at 37° C. in a tissue culture incubator. Solubilization solution was then applied to lyse cells and the mixture was triturated repeatedly. The solubilized solutions from each well were then transferred to a fresh 96-well plate and absorbance read at 570 nm. Experiments were tested for 3 different concentration models and one was repeated three times at 5% oxygen and three times at 18% oxygen.
Botanical extracts of grapeseed, skullcap and eclipta and Biotin were screened for their ability to stimulate HDPSC growth in culture using a 96-well plate format with MT assay as an endpoint. Cells were treated for 72 h with various concentrations and combinations with further stock dilutions in the range; 10^−1-10^−5 of the extracts. […] (See Tables 5a, b, c, d, e, f, and g).

[5] = test system: Wnt/beta-Catenin signaling; experiment: TopFlash/FopFlash luciferase assay of Wnt/beta-Catenin signaling in transfected HDPSCs; assay type: cell-based, human
Experimental: The cells were then seeded onto a collagen coated 96-well plate (white opaque with clear bottom, Greiner Bio-one 655098) using 2500 cells per well on average with 200 μL supplemented D-MEM. […] In a 1.5 or 2 mL centrifuge tube, 60 μL FuGene® 6 was added to 500 μL DMEM (with no supplements or antibiotics) medium and mixed gently, then incubated for 5 min. 1) and 2) were combined and mixed gently, then incubated for 20 min at room temperature with occasional gentle mixing by hand. Old medium was removed from all wells and replaced with 100 μL fresh supplemented D-MEM. […] was then added to each well and mixed gently by pipette. Medium was changed after 4-6 h with 100 μL fresh supplemented DMEM. […] The treatments were performed three times once a day for a total of three days of treatment. Medium was removed from each well and wells were washed with 50 μL room temperature PBS so that no colour could be seen leftover. 20 μL lysis solution was added to each well and hand shaken every few minutes for a total of 15 mins. The fluorescence spectrophotometer (Varian Cary Eclipse model) was set to: • Data mode: Bio/Chemi-luminescence • Emission wavelength: 560.00 nm • Stop time: 0.8 mins • PMT Detector Voltage: […] 3 of the duplicates of the wells from 3) were used to count the cells in each well and estimate a count for each type of extract. Stimulation of stem cell growth and proliferation can be achieved by activation of the Wnt/beta-Catenin signaling pathway. Having confirmed proliferation of […] by exposure to grapeseed, skullcap, eclipta and Biotin and combinations thereof, a series of studies were conducted to detect and measure the upregulation of the Wnt/beta-Catenin protein as the activation mechanism of the HDPSC proliferation. The method selected for the Wnt/beta-Catenin protein studies was transfection with Topflash and Fopflash plasmids followed by measuring luciferase activity by bioluminescence assays. Topflash and Fopflash plasmids were obtained as bacterial stab cultures from Add gene. Plasmid DNA was purified using the Norgen Biotek kit (info). […] Old medium was removed and replaced with 100 μL fresh complete medium. 20 μL of DNA/FuGENETM 6 mixture was added and mixed gently by pipette. After 4-6 h, medium was removed and replaced with 100 μL fresh complete medium. Botanical extracts were then added to each well. Treatments lasted 72 h with media/extracts refreshed every 24 h. Activation of Wnt/beta-Catenin signaling was assayed as luciferase activity using standard bioluminescence assays. Media from each well was removed and cells were washed twice with 50 μL PBS. 20 μL of cell lysis solution was then added to each well and the plate was incubated at room temperature for 15 min. Luminescence at 560±10 nm was measured using a Varian Cary Eclipse fluorescence spectrophotometer. […] Following transfection, cells were treated for three days as for the MTT assay and then assayed for luciferase activity using standard assays. […] To evaluate whether the extract combinations with Biotin identified in FIG. 1 activate Wnt/beta-Catenin signaling, […] were transfected with Topflash plasmid, which contains the luciferase cDNA and several tandem repeats of the Wnt/beta-Catenin response element.^230 Following transfection, cells were treated for three days as for the MTT assay and then assayed for luciferase activity using standard assays.

Compound: Nc1cc(N2CCCCC2)nc(N)[n+]1[O-] [5% minoxidil, minoxidil]
- Efficacy Factor Multiple vs 2% Minoxidil [1]: 1.9
- Efficacy Factor Multiple vs 2% Minoxidil [2]: 1.0

Compound: CC(C)(O)[C@@H]1CC[C@](C)([C@H]2[C@@H](O)C[C@@]3(C)[C@@H]4C[C@H](O[C@@H]5O[C@H](CO)[C@@H](O)[C@H](O)[C@H]5O)[C@H]5C(C)(C)[C@@H](O[C@@H]6OC[C@@H](O)[C@H](O)[C@H]6O)CC[C@@]56C[C@@]46CC[C@]23C)O1 [Astragaloside IV]
- effect on Bax, p53, Bcl-2 and Bcl-XL [3]: down-regulation of Bax and p53 (pro-apoptotic molecules), and up-regulation of the anti-apoptotic Bcl-2 and Bcl-XL molecules
- effect on procaspase-8, caspase-3 and procaspase-9 [3]: blocked the procaspase-8, resulting in the inhibition of the pro-apoptosis enzymes caspase-3 and procaspase-9 activities

Compound: procyanidin
- adverse side effects (male pattern baldness): without any adverse side effects

Compound: Nc1cc(N2CCCCC2)nc(N)[n+]1[O-] [2% minoxidil, minoxidil]
- Efficacy Factor Multiple vs 2% Minoxidil [1]: 1.0
- Efficacy Factor Multiple vs 2% Minoxidil [2]: 1.0

Compound: O=C(O)CCCC[C@@H]1SC[C@@H]2NC(=O)N[C@@H]21 [Biotin]
- HDPSC growth in the MTT assay, result in words ([4]; 72 h, stock dilutions 10^−1-10^−5): statistically significant reduction in the cell population
- MTT signal (absorbance at 570 nm), mean relative to Control 1.00 ([4]; Table 5b, dilution 1/10^3, 5% oxygen, 72 h): 1.12
- MTT signal (absorbance at 570 nm), mean relative to Control 1.00 ([4]; Table 5b, dilution 1/10^4, 5% oxygen, 72 h): 0.95
- MTT signal (absorbance at 570 nm), mean relative to Control 1.00 ([4]; Table 5b, dilution 1/10^5, 5% oxygen, 72 h): 0.69
- MTT signal (absorbance at 570 nm), mean relative to Control 1.00 ([4]; Table 5c, dilution 1/10^3, 5% oxygen, 72 h): 0.76
- MTT signal (absorbance at 570 nm), mean relative to Control 1.00 ([4]; Table 5c, dilution 1/10^4, 5% oxygen, 72 h): 0.70
- MTT signal (absorbance at 570 nm), mean relative to Control 1.00 ([4]; Table 5c, dilution 1/10^5, 5% oxygen, 72 h): 0.95
- Change vs Control (stem cells, MTT) ([4]; dilution 1/10^3, 5% oxygen): 52.0%
- Change vs Control (stem cells, MTT) ([4]; dilution 1/10^5, 5% oxygen): −21.0%
- Change in Stem Cells (MTT signal, mean relative to Control 1.00) ([4]; Table 5d, dilution of stock 1/10^4, 5% oxygen, 72 h): 1.09
- Change in Stem Cells (MTT signal, mean relative to Control 1.00) ([4]; Tables 5f/5g, dilution of stock 1/10^3, 18% oxygen, 72 h): 0.99
- Change in Stem Cells (MTT signal, mean relative to Control 1.00) ([4]; Tables 5f/5g, dilution of stock 1/10^4, 18% oxygen, 72 h): 1.21
- Change in Stem Cells (MTT signal, mean relative to Control 1.00) ([4]; Tables 5f/5g, dilution of stock 1/10^5, 18% oxygen, 72 h): 0.98
- Change in Stem Cells (MTT signal, mean relative to Control 1.00) ([4]; Tables 5d/5e, dilution of stock 1/10^3, 5% oxygen, 72 h): 1.52
- Change in Stem Cells (MTT signal, mean relative to Control 1.00) ([4]; Tables 5d/5e, dilution of stock 1/10^5, 5% oxygen, 72 h): 0.79
- HDPSC population reduced by ([4]; stock dilution 10^−5): 21%
- HDPSC Proliferation (MTT, means % relative to Control = 100%) ([4]; stock dilution 10^−5, 5% oxygen, 72 h): 79%
- relative effect on Wnt/beta-Catenin Signaling (Control=100) ([5]; No Biotin, 18% oxygen, 72 h): 97
- luciferase activity in TopFlash transfected HDPSCs, individual replicate measurements (single treatments) ([5]; Table 9b, replicates 1-28, 18% oxygen, 72 h): 21.57 arbitrary luminescence values and 17.5 arbitrary luminescence values and 14.29 arbitrary luminescence values and 19.58 arbitrary luminescence values (2×) and 23.45 arbitrary luminescence values and 26.25 arbitrary luminescence values and 19.99 arbitrary luminescence values and 20.75 arbitrary luminescence values (2×) and 12.46 arbitrary luminescence values and 7.884 arbitrary luminescence values and 11.65 arbitrary luminescence values and 12.51 arbitrary luminescence values (2×) and 16.28 arbitrary luminescence values and 20.14 arbitrary luminescence values and 20.65 arbitrary luminescence values and 10.28 arbitrary luminescence values and 7.63 arbitrary luminescence values and 10.94 arbitrary luminescence values and 15.57 arbitrary luminescence values and 18.62 arbitrary luminescence values and 20.5 arbitrary luminescence values and 14.24 arbitrary luminescence values and 15.72 arbitrary luminescence values and 22.03 arbitrary luminescence values and 23.3 arbitrary luminescence values
- luciferase activity in TopFlash transfected HDPSCs, individual replicate measurements (combination experiment with Biotin) ([5]; Table 9d, replicates 1-21, 18% oxygen, 72 h): 79.5782 arbitrary luminescence values and 105.8972 arbitrary luminescence values and 78.0728 arbitrary luminescence values and 83.6682 arbitrary luminescence values and 87.4832 arbitrary luminescence values and 90.9168 arbitrary luminescence values and 94.2910 arbitrary luminescence values and 100.5561 arbitrary luminescence values and 22.6868 arbitrary luminescence values and 41.6603 arbitrary luminescence values and 37.0416 arbitrary luminescence values and 33.2163 arbitrary luminescence values and 44.2139 arbitrary luminescence values and 48.4257 arbitrary luminescence values and 95.4836 arbitrary luminescence values and 110.3368 arbitrary luminescence values and 109.6925 arbitrary luminescence values and 129.5662 arbitrary luminescence values and 112.3295 arbitrary luminescence values
- luciferase activity in TopFlash transfected HDPSCs, mean (single treatments) ([5]; Tables 9a/9b, 18% oxygen, 72 h, 560 ± 10 nm, 27-28 replicates): 17.0 ± 0.9 arbitrary luminescence values and 17.02 arbitrary luminescence values
- luciferase activity in TopFlash transfected HDPSCs, mean (combination experiment with Biotin) ([5]; Tables 9c/9d, 18% oxygen, 72 h, 18-20 replicates): 79.2 ± 7.3 arbitrary luminescence values and 79.2167 arbitrary luminescence values
- relative effect on Wnt/beta-Catenin Signaling (Control=100) ([5]; With Biotin, 18% oxygen, 72 h): 99
- % Change vs Control / Wnt/β-catenin Signal Upregulation of Combinations vs Control ([5]; combination with Biotin (or Biotin alone), dilution 10^−3, 18% oxygen): −1.0%
- effect of Biotin on Wnt/beta-Catenin signaling upregulated by botanical extracts ([5]; tested in combination with botanical extracts): attenuating or inhibiting effect
